# How the values were obtained:
# [1] = system: Isocitrate Dehydrogenase-1 (IDH-1); assay: Western blot, IDH1 levels; format: cell-based, human
# Experimental: The whole cell pellets were resuspended one at a time in 1 mL of C7 buffer and transferred to labeled 15 mL tubes. The samples were then sonicated in the cold room on ice using 6 sonic pulses with the setting at #14. The samples were spun for a short time to 2500 g after sonication and the samples transferred to 2 ml tubes. The pH was verified of each sample (pH should be 9.0) using the foam remaining in the […] sample tubes.
# Alkylation and reduction of samples was performed for each sample by adding 10 ul of 1M acrylamide, 25 ul of tributylphoshene and incubation for 90 mins with intermittent mixing. After incubation, 10 ul of 1M DTT was added and the tubes were spun at 20,000 g at 20 deg C. for 10 minutes and transferred the supernatant to labeled Amicon Ultra centrifugal filter units with a 10 k cut off (Millipore catalog #UFC 801024). The samples were spun for 15 minutes at 2500 g in 2 intervals. The conductivity was measured for Chaps alone as well as the samples using a conductivity meter. If the conductivity of samples is high, then 1 ml of chaps was added for buffer exchange and spun again at 2500 g until the volume was down to 250 ul. […]
# The samples were processed as per standard protocols as described above and the amount of protein in each of the samples was determined by Bradford assay. […]
# [2] = system: MCF-7 breast cancer cells; assay: OCR and ECAR, SeaHorse XF analyzer; format: cell-based
# Text: (SeaHorse Biosciences Inc, North Billerica, Mass.).
# In contrast, cancer cells (e.g., MCF-7, PaCa-2) are inherently primed to culture at higher levels of glucose compared to normal cells due to their glycolytic phenotype for maintenance in culture.
# HK-2 cells = assay: Diabetes PCR array; format: cell-based, human; conditions: HK2(H) cells, 22 mM glucose; particularly 100 μM
# Experimental: (§1) The HK-2 and HASMC cells are normally maintained in culture at 5.5 mM glucose, which is a concentration that corresponds to a range considered normal in human blood. However, in order to simulate a diabetic environment, both cell lines were subsequently maintained at 22 mM glucose, which corresponds to the range observed in human blood associated with chronic hyperglycemia. The cells were subsequently allowed to propagate over 3 passages so that the intracellular regulation processes were functionally adapted to mimic a diabetic state. The choice of cell line was based on the physiologic influence of diabetes on renal dysfunction and progression to end-stage renal disease (ESRD) in addition to the progressive pathophysiology of a compromised cardiovascular function.
# (§2) The Diabetes PCR array (SABiosciences) offers a screen for 84 genes simultaneously.
# (§3) A stringent analysis of the Real time PCR data of the HK-2 samples on the Diabetes Arrays (Cat #PAHS-023E, SABiosciences Frederick Md.) was made to exclude all results where gene regulation was not at least a two-fold regulation over HK-2 normal untreated cells with a p value of less than 0.05.
# HASMC cells = assay: Diabetes PCR array; format: cell-based, human
# Experimental: as §1, §2
# as §3, with “the HASMC cell” for “the HK-2”, “over HASMC” for “over HK-2”
# SK-MEL-28 mitochondria = conditions: human, 48 h, 100 µM
# Experimental: Cells were centrifuged, pelleted, flash frozen and stored at −80° C. until the mitochondria were isolated. Cell pellets were thawed, resuspended and ruptured in Dounce homogenizer. The homogenate was centrifuged and mitochondria were isolated using reagents and the protocol recommended by the Mitochondria Isolation kit for Cultured cells (MitoSciences, Eugene Oreg., Cat #MS852). The mitochondrial fraction was aliquoted and stored at −80° C.
# Analysis was by LC-MS/MS on a Waters Quattro II triple quadrupole mass spectrometer with a Prism RP 1×100 mm, 5 μm particle size column (Keystone Scientific). Isocratic elution with 4 mM ammonium formate in 20% isopropyl alcohol 80% methanol at a flow rate of 50 μl/min. Ten μl of each sample was injected.
smiles,measurement,setting,value
"COC1=C(OC)C(=O)C(C/C=C(\C)CC/C=C(\C)CC/C=C(\C)CC/C=C(\C)CC/C=C(\C)CC/C=C(\C)CC/C=C(\C)CC/C=C(\C)CC/C=C(\C)CCC=C(C)C)=C(C)C1=O [Q10, Coenzyme Q10]",expression of IDH1,"[1]; HDFa, nFIB, HASMC",did not demonstrate significant changes in the expression pattern
same,expression of IDH1,"[1]; cancer cell lines MCF-7, SKMEL28, HepG2, PaCa-2",increased expression of IDH1
same,OCR values,[2],consistent reduction in OCR values
same,CEACAM1 RNA transcript,HK-2 cells,highly upregulated
same,expression of CCL5,HASMC cells; HASMC cells,significant decrease in the expression of CCL5
same,"expression of AGT, CEACAM1, INSR, SELL, IL-6, TNF, CCL5",HASMC cells; hyperglycemic HASMC cells,altered expression of genes
same,Q10H2,SK-MEL-28 mitochondria,0.28 ng/Sample
same,increase in the levels of Q10H2,SK-MEL-28 mitochondria,3 fold
